Test results: the METLIN SMRT retention time set (Domingo-Almenara et al. 2019)

Assay: gradient 5% acetonitrile 3 min, to 50% in 2 min, to 85% in 15 min, held 3 min, 100 µL/min
Settings: column: Zorbax Extend-C18 2.1 x 50 mm; eluents: water / acetonitrile, 0.1% formic acid
Outline: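 Retention times of pure standards were taken from adduct peaks that were selected by computer and manually inspected. Over 3 months, mixtures of ~100 molecules were run by HPLC–quadrupole time-of-flight mass spectrometry in positive and negative ionization mode. The Zorbax Extend-C18 column (2.1 × 50 mm, 1.8 μm) ran at 100 μL/min in water and acetonitrile, each containing 0.1% formic acid, with 40 μL dead volume and 900 μL dwell volume.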

Row | RP-LC retention time | SMILES
1 | 763 s | Cc1ccccc1NC(=O)C1CCCN1S(=O)(=O)c1cc2c(cc1C)NC(=O)CO2 (stereo unspecified)
2 | 868 s | COc1cccc(-c2ccnc3nc(C4CCC4)nn23)c1
3 | 1380 s | CCCCN1C(=O)C(C)(C(=O)N2CCN(c3cccc(C)c3C)CC2)Oc2cccnc21 (stereo unspecified)
4 | 1360 s | CCOC(=O)c1c(C)oc2nc(C)nc(Nc3ccc(C)c(F)c3)c12
5 | 964 s | CN1CCCc2cc(C(=O)NCc3ccccc3Cl)sc21
6 | 593 s | CN1CCN(C(=O)c2cn(-c3cc(N4CCSCC4)ncn3)cn2)CC1
7 | 1020 s | CCOc1ccc(CC(=O)N2CCCn3nc(-c4ccc(Cl)cc4)cc3C2)cc1
8 | 941 s | O=C(COc1ccccc1)Nc1cnc(N2CCCCCC2)nc1
9 | 808 s | COC(=O)c1c(NCc2cc(OC)ccc2OC)c2cccc(Cl)c2[nH]c1=O
10 | 853 s | CCCN(CC1CCOC1)C(=O)Nc1ccc(Cl)cc1F (stereo unspecified)
11 | 766 s | CCOC(=O)c1cc(S(=O)(=O)N2CCN(c3ncccn3)CC2)[nH]n1
12 | 683 s | CC1(C)NC(=O)N(CCC(=O)N2CCCn3nc(-c4ccc(F)cc4)cc3C2)C1=O
13 | 1090 s | C=CCn1nnc(NCc2ccc(-c3cccc(Cl)c3C)o2)n1
14 | 973 s | COc1ccc(N2CC(c3nc(-c4ccccc4)no3)CC2=O)cc1Cl (stereo unspecified)
15 | 742 s | CCOc1ccc(C(=O)N2CCN(c3cc(CC)n4cnnc4n3)CC2)cc1
16 | 697 s | CCOc1ccc(NC(=O)Nc2c(-c3cccc(C)c3)nc3ccccn23)cc1
17 | 691 s | O=C(Nc1nnc(Cc2cccs2)o1)c1ccc(S(=O)(=O)N2CCOCC2)cc1
18 | 749 s | CCc1noc(NC(C)=O)c1-c1ccc(OC)c(S(=O)(=O)Nc2ccc(OC)cc2)c1
19 | 1330 s | Fc1cccc(-c2noc(Cc3nc(-c4ccc(Cl)cc4)cs3)n2)c1
20 | 784 s | COc1ccc(-c2c(C)noc2NC(C)=O)cc1S(=O)(=O)NCc1ccc(C)cc1
21 | 623 s | CN1C(=O)c2cc(C(=O)NCCCN3CCc4ccccc4C3)nn2CC1(C)C(=O)NC1CCCC1 (stereo unspecified)
22 | 725 s | CCN1CCn2cc(S(=O)(=O)Nc3cc(F)ccc3C)cc2C1=O

Row | RP-LC retention time | SMILES
23 | 816 s | CC(Oc1cccc(Cl)c1)C(=O)NCC1(C)CCOCC1 (stereo unspecified)
24 | 919 s | Cc1cccc(CN2CCCn3nc(C(=O)NC(C)Cc4ccco4)cc3C2=O)c1 (stereo unspecified)
25 | 711 s | O=C(c1ccc(C(F)(F)F)s1)N1CCN(c2nnc3ccccn23)CC1
26 | 635 s | CC(C)CN1CCN(Cc2nc(-c3ccc(N4CCSCC4)nc3)no2)CC1
27 | 802 s | O=C(CSc1nnc(NC(=O)C2CCCCC2)s1)Nc1ccc2c(c1)OCO2
28 | 733 s | Cn1c(=O)n([C@H]2CCN(C(=O)C3(c4ccccc4)CC3)C2)c2ncccc21
29 | 725 s | O=C(C1CCCC1)N1CCCC1c1nc(C2CCOCC2)no1 (stereo unspecified)
30 | 913 s | Cc1ccc(NC(=O)C2CCN(S(=O)(=O)c3ccc4c(c3)sc(=O)n4C)CC2)cc1C
31 | 948 s | COc1ccc(-c2ncc3c(n2)CCN(C(=O)c2ccccc2Br)C3)cc1
32 | 808 s | CCOC(=O)C1CCN(C(=O)C2COC3(CCCCC3)N2C(=O)c2ccccc2)CC1 (stereo unspecified)
33 | 1210 s | Cc1ccc(-n2ncc3c(=O)n(Cc4nc(-c5ccc(Cl)c(F)c5)no4)cnc32)cc1
34 | 642 s | O=C(Nc1cc(Cl)cc(Cl)c1)N1CCc2nc[nH]c2C1
35 | 601 s | CCC(=O)Nc1ccc(OCc2cc(C(=O)NC3CCC(C)CC3)no2)cc1 (stereo unspecified)
36 | 686 s | Cn1cc(CN2CCCC(COc3ccccc3C(=O)NC3CC3)C2)c2ccccc21 (stereo unspecified)
37 | 667 s | O=C(NCc1csc(C2CCCN(C(=O)C3CC3)C2)n1)C1CCC1 (stereo unspecified)
38 | 858 s | CC1=C(c2ccc(C)cc2)S(=O)(=O)N=C1N1CCC(NC(=O)Cc2cccs2)CC1
39 | 975 s | CCN1C=C(C(=O)OCc2cc(F)ccc2F)C(C)=NS1(=O)=O
40 | 1150 s | CCOc1ccc(C2Cn3nnc(-c4nc(-c5ccccc5Cl)no4)c3CO2)cc1 (stereo unspecified)
41 | 671 s | COc1ccc(-c2nc3ccccn3c2Nc2ccc(Cl)cc2)cc1
42 | 866 s | COc1ccc(-c2noc(Cn3ccn(-c4cccc(Cl)c4)c(=O)c3=O)n2)cc1
43 | 853 s | COc1ccc(NC(=O)CN2C(=O)CC(C)Sc3ccccc32)c(OC)c1 (stereo unspecified)
44 | 767 s | CCS(=O)(=O)N1CCC2(CC1)NC(=O)N(Cc1ccc(Cl)cc1)C2=O

Row | RP-LC retention time | SMILES
45 | 554 s | CCN1CCN(CCCNC(=O)c2ccc3c(c2)N(C)C(=O)C2CCCCN32)CC1 (stereo unspecified)
46 | 967 s | CCCn1c(=O)c(-c2ccc(C(=O)NCC(C)C)cc2)nc2cccnc21
47 | 761 s | Cc1ccc(-c2nc3nc(C)c(CC(=O)NC(C)C)c(C)n3n2)cc1
48 | 653 s | COc1cc(Nc2ncc(F)c(Nc3ccc4c(n3)N(COP(=O)(O)O)C(=O)C(C)(C)O4)n2)cc(OC)c1OC
49 | 1180 s | CCCN1C(=O)c2cc(S(=O)(=O)N3CCCCCC3)ccc2Oc2cccnc21
50 | 855 s | COCCNC(=O)c1csc(N2CCN(c3cccc(OC)c3)CC2)n1
51 | 910 s | COCCCNC(=O)N1CCCCCC1c1cccc(C)c1 (stereo unspecified)
52 | 789 s | C=CCn1c(C)c(CC(=O)N2CCCC2)c(=O)n2nc(-c3ccc(C)cc3)nc12
53 | 608 s | CNCCc1cnc(CCC(c2ccccc2)c2ccccc2)[nH]1
54 | 962 s | O=C(CN1C(=O)CCCc2cc(S(=O)(=O)N3CCCCCC3)ccc21)Nc1ccc(F)cc1F
55 | 806 s | COc1ccccc1C1(CNS(=O)(=O)c2ccc(NC(=O)C(C)C)cc2)CCOCC1
56 | 494 s | Cn1cnnc1SCCNC(=O)CNC(=O)c1ccc(=O)[nH]c1
57 | 873 s | Cc1ccccc1NC(=O)N1CCC(CCNC(=O)C2(c3ccccc3)CC2)CC1
58 | 1070 s | CCn1c(SCC(=O)Nc2nc(-c3ccccc3)cs2)nnc1-c1cc2ccccc2o1
59 | 826 s | CCOc1ccc(S(=O)(=O)NCCC(O)C(C)(C)C)cc1F (stereo unspecified)
60 | 862 s | Cc1ccc(NC(=O)C2CCCN(C(=O)C3Sc4ccccc4NC3=O)C2)cc1C (stereo unspecified)
61 | 670 s | CCOc1ccccc1NC(=O)Nc1cccc(-c2ccc(N3CCOCC3)nn2)c1
62 | 715 s | CCOC(=O)c1c(C)[nH]c(CCC(=O)NCCc2c[nH]c3ccccc23)c1C
63 | 991 s | O=S(=O)(c1cccc(-c2nnc(-c3ccc(F)cc3)o2)c1)N1CCCC1
64 | 623 s | CN(CCc1noc(-c2ccc(C(=O)NCCCN3CCCC3)cc2)n1)C(=O)c1ccc(F)cc1
65 | 746 s | CN1CCCc2cc(C(CNC(=O)C(=O)NCc3ccccc3)N3CCCCC3)ccc21 (stereo unspecified)
66 | 954 s | CCn1c(=O)c(C)nc2cc(-c3noc(C4CC(=O)N(c5ccc(C)c(C)c5)C4)n3)ccc21 (stereo unspecified)
